The values below come from ChEMBL document CHEMBL1201862, “PubChem BioAssay data set” (2004).

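48-hour exposure; five concentrations; linearly interpolated endpoints. Here, GI50 denotes the concentration required for 50% inhibition of growth.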 Active and inactive are the calls of the source. No stated cut-off is given here; in the data, active = GI50 up to about 1.1 µM and inactive = higher.

Among the test systems are HT-29; A549; SK-MEL-2; HL-60; SF-539; SNB-19; Malme-3M; NCI-H23; OVCAR-5; 786-0; K562; NCI-H226; SF-295; UO-31; HCT-15; BT-549; OVCAR-3; HOP-62.
Test in all cases: inhibition of tumour cell growth, NCI panel, 48 h

As for `Cc1ccc2c(C(=O)c3c(C)n(CCN4CCOCC4)c4ccccc34)cccc2c1`, the GI50 in the assay with HT-29 was 11.2 µM (inactive); in the assay on A549, 24.4 µM (inactive); in the assay with SK-MEL-2, 17.4 µM (inactive); in the assay with HL-60, 2.57 µM (inactive); in the assay on SF-539, 0.156 µM (active); with SNB-19 it was 33.9 µM (inactive). The GI50 in the assay on Malme-3M was 5.98 µM (inactive); in the assay on NCI-H23, 14.8 µM (inactive); in the assay with OVCAR-5, 23.2 µM (inactive); with 786-0, 13.8 µM (inactive); with K562 it was 1.36 µM (inactive); in the assay with NCI-H226, < 0.01 µM (active). Further, the GI50 in the assay on SF-295 is 7.45 µM (inactive); in the assay on UO-31, 23.2 µM (inactive); with HCT-15, 9.35 µM; in the assay on BT-549 it was 14 µM (inactive); in the assay on OVCAR-3, 3.54 µM (inactive); in the assay with HOP-62, 27.3 µM (inactive).

Turning to `Nc1n[n+]2cc(-c3ccccc3)n(CC(=O)c3ccccc3)c2s1`, the GI50 in the assay with HT-29 is 27.2 µM (inactive); with A549 it was > 100 µM (inactive); with SK-MEL-2 it was 15.5 µM (inactive); in the assay on HL-60 it was 35.5 µM (inactive); in the assay on SF-539, 20.1 µM (inactive); with SNB-19, 21.7 µM (inactive). In addition, the GI50 with Malme-3M is 12.2 µM (inactive); in the assay with NCI-H23 it was 20.6 µM (inactive); with OVCAR-5 it was 18.8 µM (inactive); in the assay on 786-0, 20.5 µM (inactive); in the assay on K562 it was 29.7 µM (inactive); with NCI-H226, 32.4 µM (inactive). Besides, the GI50 in the assay on SF-295 is > 100 µM (inactive); with UO-31, 76.2 µM (inactive); in the assay with HCT-15, 44.7 µM; in the assay on BT-549, 19.6 µM (inactive); in the assay on OVCAR-3 it was 23.8 µM (inactive); in the assay on HOP-62, 24.8 µM (inactive).

`C[C@@H](C(=O)O)N1C(c2ccco2)=C(/C(C=O)=C\c2ccco2)C(=O)/C1=C\c1ccco1`: the GI50 with HT-29, in the assay with A549, with SK-MEL-2, in the assay on HL-60, with SF-539 and with SNB-19 was > 100 µM (inactive) in each case. The GI50 in the assay on Malme-3M, with NCI-H23, in the assay with OVCAR-5, with 786-0, in the assay with K562 and in the assay with SF-295 was > 100 µM (inactive) throughout. For the same molecule, the GI50 was > 100 µM (inactive) with UO-31; greater than 100 µM with HCT-15; > 100 µM (inactive) in the assay on BT-549; > 100 µM (inactive) in the assay on OVCAR-3; > 100 µM (inactive) in the assay on HOP-62.

Turning to `N#Cc1c(N)[nH]c(=S)c(C#N)c1-c1cccc(Cl)c1`, the GI50 in the assay on HT-29 was 34.2 µM (inactive); in the assay with A549, 63.7 µM (inactive); in the assay on SK-MEL-2 it was 20.3 µM (inactive); in the assay with HL-60, 23.2 µM (inactive); with SF-539, 49.2 µM (inactive); with SNB-19, 56.2 µM (inactive). The GI50 in the assay on Malme-3M is 56.1 µM (inactive); with NCI-H23 it was 71.9 µM (inactive); in the assay on OVCAR-5, > 100 µM (inactive); in the assay with 786-0, 18.6 µM (inactive); with K562, 26.2 µM (inactive); in the assay with NCI-H226, 19.9 µM (inactive). Besides, the GI50 is 34.9 µM (inactive) in the assay with SF-295; 32.8 µM (inactive) with UO-31; 41.1 µM in the assay with HCT-15; 39.5 µM (inactive) in the assay with BT-549; 26.9 µM (inactive) in the assay on OVCAR-3; 42.4 µM (inactive) with HOP-62.

With `CCOC(=O)c1cc([N+](=O)[O-])c(Sc2ncnc3nc[nH]c23)c([N+](=O)[O-])c1`, the GI50 in the assay on HT-29 was 3.06 µM (inactive); in the assay on A549, 20.5 µM (inactive); in the assay with SK-MEL-2 it was 8.89 µM (inactive); with HL-60, 4.19 µM (inactive); in the assay on SF-539 it was 3.09 µM (inactive); in the assay on SNB-19, 17.1 µM (inactive). Moreover, the GI50 with Malme-3M was 3.15 µM (inactive); with NCI-H23, 7.13 µM (inactive); in the assay with OVCAR-5, 1.66 µM (inactive); in the assay with 786-0, 2.79 µM (inactive); with K562, 0.53 µM (active); with NCI-H226, 5.61 µM (inactive). Moreover, the GI50 is 3.36 µM (inactive) in the assay on SF-295; 2.62 µM (inactive) with UO-31; 2.48 µM in the assay on HCT-15; 6.32 µM (inactive) in the assay on BT-549; 1.39 µM (inactive) in the assay with OVCAR-3; 11.1 µM (inactive) in the assay on HOP-62.

Regarding `N#CC(Nc1ccccc1)c1ccc(C(C#N)Nc2ccccc2)cc1` (stereo unspecified), the GI50 was 20.8 µM (inactive) with HT-29; > 100 µM (inactive) with A549; > 100 µM (inactive) with SK-MEL-2; 5.79 µM (inactive) in the assay on HL-60; 25.7 µM (inactive) in the assay on SF-539; 44.5 µM (inactive) in the assay on SNB-19. Besides, the GI50 in the assay on Malme-3M was > 100 µM (inactive); in the assay on NCI-H23, 41.5 µM (inactive); in the assay with OVCAR-5, > 100 µM (inactive); with 786-0 it was 36.5 µM (inactive); with K562, 0.724 µM (active); in the assay on NCI-H226, > 100 µM (inactive). The GI50 with SF-295 was 40 µM (inactive); in the assay on UO-31, 21.1 µM (inactive); in the assay with HCT-15, 18.2 µM; in the assay on BT-549 it was 38.6 µM (inactive); with OVCAR-3 it was 35.9 µM (inactive).

Regarding `N#Cc1cc(N(CCCl)CCCl)c([N+](=O)[O-])cc1[N+](=O)[O-]`, the GI50 with HT-29 was > 100 µM (inactive); with A549 it was 83.8 µM (inactive); with SK-MEL-2, > 100 µM (inactive); in the assay on HL-60 it was 22.3 µM (inactive); in the assay on SF-539, > 100 µM (inactive); with SNB-19 it was > 100 µM (inactive). Also, the GI50 in the assay on Malme-3M was 60.8 µM (inactive); with NCI-H23, > 100 µM (inactive); in the assay on OVCAR-5 it was > 100 µM (inactive); with 786-0, 81.1 µM (inactive); with K562, > 100 µM (inactive); in the assay with SF-295, > 100 µM (inactive). For the same molecule, the GI50 in the assay on UO-31 is > 100 µM (inactive); with HCT-15, greater than 100 µM; in the assay with BT-549 it was > 100 µM (inactive); in the assay on OVCAR-3, > 100 µM (inactive); in the assay on HOP-62 it was > 100 µM (inactive).

Turning to `Oc1ccc2oc3c(O)c4ccccc4cc3c2c1`, the GI50 is 17.5 µM (inactive) in the assay on HT-29; 24.9 µM (inactive) in the assay on A549; 7.91 µM (inactive) in the assay with SK-MEL-2; 2.28 µM (inactive) with HL-60; 1.75 µM (inactive) in the assay on SF-539; 83.4 µM (inactive) in the assay on SNB-19. Besides, the GI50 in the assay on Malme-3M was 11.4 µM (inactive); with NCI-H23, 10.6 µM (inactive); in the assay on 786-0, 5.93 µM (inactive); in the assay with K562 it was 0.0632 µM (active); in the assay on UO-31, 0.695 µM (active); with HCT-15, 1.98 µM. In addition, the values for the GI50 in the assay with BT-549, in the assay with OVCAR-3 and in the assay with HOP-62 were 5.61 µM (inactive), 3.53 µM (inactive) and 35.2 µM (inactive), respectively.

With `c1ccc2c(c1)Nc1nc3nonc3nc1N2`, the GI50 with HT-29, with A549, in the assay with SK-MEL-2, in the assay with HL-60, in the assay with SNB-19 and in the assay with Malme-3M was > 100 µM (inactive) in each case. In addition, the GI50 in the assay with NCI-H23, in the assay with OVCAR-5, in the assay with 786-0, in the assay with K562, in the assay on NCI-H226 and in the assay on SF-295 was > 100 µM (inactive) each time. The GI50 in the assay on UO-31 is > 100 µM (inactive); with HCT-15, 29.4 µM; with BT-549 it was > 100 µM (inactive); with HOP-62, > 100 µM (inactive).

Regarding `CCOC1NC(/N=C/c2ccc(OC)cc2)=C(C#N)C1C#N` (stereo unspecified), the GI50 in the assay on HT-29 was > 100 µM (inactive); with A549 it was > 100 µM (inactive); in the assay with SK-MEL-2, 29.9 µM (inactive); in the assay on HL-60 it was 37.5 µM (inactive); with SF-539 it was 93.8 µM (inactive); with SNB-19 it was 87.3 µM (inactive). Further, the GI50 with Malme-3M is 90.8 µM (inactive); in the assay on NCI-H23 it was 46 µM (inactive); in the assay with OVCAR-5, 87.5 µM (inactive); in the assay on 786-0, > 100 µM (inactive); with K562, 31 µM (inactive); in the assay on NCI-H226, > 100 µM (inactive). Besides, the GI50 with SF-295 was > 100 µM (inactive); in the assay with UO-31, > 100 µM (inactive); with HCT-15 it was 99.3 µM; in the assay on BT-549 it was 19.9 µM (inactive); in the assay with OVCAR-3 it was > 100 µM (inactive); in the assay on HOP-62, > 100 µM (inactive).

With `CC(=O)/C(=C\NC(=S)Nc1ccc(S(N)(=O)=O)cc1)C(=O)Nc1ccccc1C`, the GI50 is 45.2 µM (inactive) in the assay on HT-29; 60.4 µM (inactive) in the assay with A549; 51.9 µM (inactive) in the assay on SK-MEL-2; 16.1 µM (inactive) in the assay with HL-60; 74 µM (inactive) in the assay with SF-539; 84.3 µM (inactive) in the assay with SNB-19. Further, the GI50 with NCI-H23 is 71.3 µM (inactive); with OVCAR-5 it was 99.3 µM (inactive); in the assay on 786-0, 41.9 µM (inactive); with K562 it was 32.4 µM (inactive); in the assay with NCI-H226 it was 60.3 µM (inactive); in the assay with SF-295, 36 µM (inactive). For the same molecule, the GI50 is 32.4 µM (inactive) in the assay on UO-31; 41.3 µM in the assay with HCT-15; 33.9 µM (inactive) in the assay on BT-549; 64.7 µM (inactive) in the assay on OVCAR-3; 95.3 µM (inactive) with HOP-62.

On to `O=c1oc2ccc3ccccc3c2cc1-c1nnc(-c2ccc([N+](=O)[O-])cc2)[nH]1`, for which the GI50 in the assay with HT-29 is > 100 µM (inactive); in the assay with A549, > 100 µM (inactive); with SK-MEL-2, 44.6 µM (inactive); in the assay with HL-60, > 100 µM (inactive); in the assay with SF-539, 18.7 µM (inactive); in the assay with SNB-19, 32.8 µM (inactive). The GI50 is 91.2 µM (inactive) with Malme-3M; 17.7 µM (inactive) in the assay with NCI-H23; > 100 µM (inactive) in the assay with OVCAR-5; 41.1 µM (inactive) in the assay with 786-0; > 100 µM (inactive) in the assay with K562; 36.6 µM (inactive) with SF-295. Moreover, the GI50 in the assay with UO-31 is 53.1 µM (inactive); in the assay with HCT-15, greater than 100 µM; in the assay on BT-549 it was 21.3 µM (inactive); in the assay on OVCAR-3, > 100 µM (inactive); in the assay on HOP-62, 17.2 µM (inactive).
